The structures appear in SMILES notation. “And” between values parts separate entries of the source, which are not always exact repeats. Equal values may be shown once.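 Dose response: 5 concentrations. Exposure: 48 h. Format: 96-well plates. Endpoint: linear interpolation; highest concentration if not reached. At the GI50, growth is halved. TGI: concentration producing complete growth inhibition.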 Bounds are passed on as bounds.

Among the test systems are SF-295 CNS; NCI-H460 lung; PC-3 prostate; T-47D breast; NCI-H522 lung; LOX IMVI melanoma; SK-OV-3 ovarian; NCI/ADR-RES ovarian; UACC-257 melanoma; KM12 colon.
Common to all, as to test: NCI anticancer screen, dose series, 48 h

On to `O=C(c1ccccc1Cl)n1oc2ccccc2c1=O`, for which the TGI with SF-295 CNS, in the assay with NCI-H460 lung, in the assay on PC-3 prostate, in the assay on T-47D breast, with NCI-H522 lung and with LOX IMVI melanoma was above 100 µM throughout. The TGI with SK-OV-3 ovarian, with NCI/ADR-RES ovarian, in the assay with UACC-257 melanoma and in the assay with KM12 colon was above 100 µM each time.
Turning to `O=Nc1c(-c2c(O)[nH]c3cc(Br)ccc23)[nH]c2ccccc12`, the GI50 in the assay with SF-295 CNS was 1.34 µM; in the assay on NCI-H460 lung it was 1.29 µM; in the assay on PC-3 prostate it was 1.2 µM; in the assay on T-47D breast, 1.98 µM; in the assay with NCI-H522 lung it was 1.1 µM; in the assay with LOX IMVI melanoma, 1.1 µM. The GI50 is 0.223 µM in the assay with SK-OV-3 ovarian, 1.42 µM in the assay with NCI/ADR-RES ovarian, 2.05 µM with UACC-257 melanoma and 0.471 µM with KM12 colon. For the same compound, the TGI with SF-295 CNS was found to be 5.57 µM; in the assay with NCI-H460 lung it was 7.57 µM; in the assay with T-47D breast it was 5.48 µM; with NCI-H522 lung it was 4.54 µM; in the assay on LOX IMVI melanoma, 2.55 µM; in the assay with SK-OV-3 ovarian, 2.94 µM. Also, the figures for the TGI in the assay with NCI/ADR-RES ovarian, in the assay on UACC-257 melanoma and in the assay on KM12 colon were 4.48 µM, 3.95 µM and 1.94 µM, respectively.
As for `C/C(=N\OCC(O)CNCCSCc1ccccc1)c1ccccc1Cl` (stereo not drawn), the TGI in the assay with SF-295 CNS was 36.2 µM; in the assay with NCI-H460 lung it was 52.3 µM; with PC-3 prostate it was 36.2 µM; in the assay on T-47D breast, 48.6 µM; in the assay on NCI-H522 lung it was 52.8 µM; in the assay with LOX IMVI melanoma it was 36.5 µM. Also, the TGI in the assay on SK-OV-3 ovarian was found to be 35.4 µM; in the assay with NCI/ADR-RES ovarian, 41 µM; in the assay with UACC-257 melanoma, 35.6 µM; in the assay with KM12 colon, 40.2 µM.
In the case of `COc1cc(-c2nc3sc(C)cn3c2/C=C2\C(=O)Nc3ccccc32)c(Br)c(OC)c1OC`, the GI50 with SF-295 CNS was 15.6 µM; in the assay on NCI-H460 lung, 30.5 µM; in the assay with PC-3 prostate, 32.2 µM; in the assay with T-47D breast, 47.7 µM; with NCI-H522 lung, 22.2 µM; with LOX IMVI melanoma it was 30.3 µM. Besides, the GI50 is 28.9 µM in the assay with SK-OV-3 ovarian, 28.3 µM in the assay with NCI/ADR-RES ovarian, 27.4 µM in the assay on UACC-257 melanoma and 17.5 µM in the assay on KM12 colon. Besides, the TGI with SF-295 CNS was 40.7 µM; in the assay on NCI-H460 lung, 94.8 µM; in the assay on PC-3 prostate, above 100 µM; in the assay with T-47D breast, above 100 µM; with NCI-H522 lung, 57.3 µM; with LOX IMVI melanoma it was above 100 µM. The TGI with SK-OV-3 ovarian worked out at 73.8 µM; in the assay with NCI/ADR-RES ovarian, 82.5 µM; with UACC-257 melanoma, 81.5 µM; with KM12 colon, 49.5 µM.
Consider `COc1ccc(CCN(CC(=O)N(CC(N)=O)C2CCC[C@@H]2OCc2ccccc2)C(=O)CN(C(=O)CN(CCc2ccc(Cl)cc2)C(=O)CN(C(=O)CN(C)Cc2ccccc2F)[C@H](C)C2CCCCC2)[C@H](C)C2CCCCC2)cc1OC` (stereo partly drawn), for which the GI50 was 1.16 µM in the assay on SF-295 CNS; 1.94 µM in the assay with NCI-H460 lung; 1.37 µM with PC-3 prostate; 1.43 µM with T-47D breast; 1.52 µM in the assay with NCI-H522 lung; 1.08 µM in the assay on LOX IMVI melanoma. Further, the GI50 in the assay with SK-OV-3 ovarian was 2.5 µM; with NCI/ADR-RES ovarian, above 50 µM; in the assay with UACC-257 melanoma, 1.09 µM; in the assay with KM12 colon it was 1.58 µM. The TGI with SF-295 CNS was 3.49 µM; in the assay with NCI-H460 lung, above 50 µM; in the assay with PC-3 prostate, above 50 µM; in the assay with T-47D breast, above 50 µM; in the assay on NCI-H522 lung it was 32.2 µM; with LOX IMVI melanoma it was 2.77 µM. Moreover, the TGI with SK-OV-3 ovarian is above 50 µM; with NCI/ADR-RES ovarian, above 50 µM; in the assay with UACC-257 melanoma, 2.68 µM; in the assay with KM12 colon, above 50 µM.
As to `CC(C)(C)c1cc(NC(=O)Nc2ccc(-c3cn4c(n3)sc3cc(OCCN5CCOCC5)ccc34)cc2)no1`, the GI50 was 1.01 µM and 0.404 µM and 1.42 µM with SF-295 CNS; 3.72 µM and 0.657 µM and 4.56 µM with NCI-H460 lung; 4.63 µM and 0.771 µM and 5.06 µM with PC-3 prostate; 0.0864 µM and 0.107 µM and 0.223 µM in the assay on T-47D breast; 0.9 µM and 0.937 µM and 3.32 µM in the assay with NCI-H522 lung; 5.86 µM and 0.928 µM and 5.07 µM in the assay on LOX IMVI melanoma. In addition, the GI50 is 7.33 µM and 5.07 µM and > 10 µM in the assay with SK-OV-3 ovarian; 2.81 µM and 4.61 µM and 7.95 µM with NCI/ADR-RES ovarian; 9.01 µM and 3.43 µM and > 10 µM in the assay with UACC-257 melanoma; 0.532 µM and 0.496 µM and 0.438 µM in the assay on KM12 colon. The TGI in the assay with SF-295 CNS was 18.1 µM and 2.55 µM and > 10 µM; in the assay on NCI-H460 lung, 16.1 µM and 10.4 µM and > 10 µM; in the assay with PC-3 prostate it was 19.1 µM and 14.2 µM and > 10 µM; in the assay on NCI-H522 lung, 15.5 µM and 13.5 µM and > 10 µM; with LOX IMVI melanoma, 30.1 µM and 8.21 µM and > 10 µM; in the assay with SK-OV-3 ovarian, 22.4 µM and 19.2 µM and > 10 µM. For the same compound, the TGI in the assay on NCI/ADR-RES ovarian is 24.7 µM and 19.2 µM and > 10 µM; with UACC-257 melanoma, 23.5 µM and 16 µM and > 10 µM; in the assay on KM12 colon it was 27.3 µM and 14.6 µM and > 10 µM.
As for `CCCCCCn1c(SC)nc(COC(=O)NC)c1COC(=O)NC`, the TGI is 35.1 µM with SF-295 CNS; 37.3 µM with NCI-H460 lung; 31.8 µM with PC-3 prostate; 35 µM in the assay on T-47D breast; 23.5 µM in the assay with NCI-H522 lung; above 100 µM with LOX IMVI melanoma. The TGI with SK-OV-3 ovarian amounted to 33.2 µM; in the assay on NCI/ADR-RES ovarian it was 69.3 µM; in the assay with UACC-257 melanoma, 37.8 µM; in the assay with KM12 colon, 32.6 µM.
Regarding `O=C(O)c1cc(=O)cc(C(=O)O)o1`, the GI50 in the assay on SF-295 CNS, with NCI-H460 lung, in the assay on PC-3 prostate, in the assay on T-47D breast, with NCI-H522 lung and in the assay on LOX IMVI melanoma was above 100 µM throughout. Also, the GI50 in the assay with SK-OV-3 ovarian, in the assay with NCI/ADR-RES ovarian, in the assay with UACC-257 melanoma and in the assay on KM12 colon was above 100 µM in each case. For the same compound, the TGI with SF-295 CNS, in the assay on NCI-H460 lung, with PC-3 prostate, in the assay on T-47D breast, in the assay with NCI-H522 lung and in the assay with LOX IMVI melanoma was above 100 µM throughout. For the same compound, the TGI with SK-OV-3 ovarian, in the assay on NCI/ADR-RES ovarian, with UACC-257 melanoma and in the assay with KM12 colon was above 100 µM in each case.
On to `CC1(C)N=C(N)N=C(N)N1c1ccc(Cl)cc1`, for which the GI50 was 2.9 µM in the assay on SF-295 CNS; 2.82 µM in the assay on NCI-H460 lung; 6.07 µM in the assay with PC-3 prostate; above 100 µM in the assay with T-47D breast; 14.6 µM in the assay on NCI-H522 lung; 2.85 µM in the assay with LOX IMVI melanoma. The GI50 in the assay on SK-OV-3 ovarian was 43 µM; in the assay with NCI/ADR-RES ovarian, above 100 µM; with UACC-257 melanoma, 75 µM; in the assay on KM12 colon, 6.68 µM. Moreover, the TGI in the assay with SF-295 CNS was 9.94 µM; in the assay on NCI-H460 lung it was above 100 µM; in the assay with PC-3 prostate it was above 100 µM; in the assay on T-47D breast it was above 100 µM; with NCI-H522 lung it was above 100 µM; with LOX IMVI melanoma it was above 100 µM. In addition, the TGI in the assay with SK-OV-3 ovarian, in the assay on NCI/ADR-RES ovarian, in the assay on UACC-257 melanoma and in the assay on KM12 colon was above 100 µM each time.
